The values below come from PMC8066102, “Metabolic Profiles of New Unsymmetrical Bisacridine Antitumor Agents in Electrochemical and Enzymatic Noncellular Systems and in Tumor Cells” (Pharmaceuticals, 2021).

One series concerns the target T1, UGT2B7 (Homo sapiens, UniProt P16662).
T1 construct: purchased Corning, NY, USA (through DIAG-MED, Poland); host or cells: baculovirus-insect cells (Supersomes)
T1 sequence (P16662 24-529): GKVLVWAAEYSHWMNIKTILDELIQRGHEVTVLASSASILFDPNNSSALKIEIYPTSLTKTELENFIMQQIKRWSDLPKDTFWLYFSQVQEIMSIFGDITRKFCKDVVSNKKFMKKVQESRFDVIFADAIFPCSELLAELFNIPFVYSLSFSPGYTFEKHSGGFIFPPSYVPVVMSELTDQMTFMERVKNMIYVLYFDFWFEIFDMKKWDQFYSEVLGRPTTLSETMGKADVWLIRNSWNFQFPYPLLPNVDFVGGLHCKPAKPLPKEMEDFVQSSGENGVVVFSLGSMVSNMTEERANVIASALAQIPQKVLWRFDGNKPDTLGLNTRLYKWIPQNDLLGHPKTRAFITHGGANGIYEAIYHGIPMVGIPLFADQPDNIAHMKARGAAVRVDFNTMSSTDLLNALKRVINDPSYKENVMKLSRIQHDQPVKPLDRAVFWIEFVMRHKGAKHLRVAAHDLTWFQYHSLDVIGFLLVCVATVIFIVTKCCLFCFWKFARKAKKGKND
Briefly: Modulation of UGT2B7 activity (epirubicin glucuronidation). The class given is in vitro ADME. Particulars: epirubicin substrate. How it is done: Isoenzyme activity was studied by the rate measurement of β-hydroxylation of testosterone (specific substrate for P4503A4) and of glucuronidation of specific substrates, namely, SN-38 (UGT1A1), EPI (UGT2B7),) and TFK (UGT2B15). All substrate and drug solutions were prepared as 10 mM stock solutions in DMSO and were diluted in […] (pH 7.4). The mixture containing isoenzymes P4503A4/UGT (0.5 mg/mL), probe substrate (0.1 mM), cofactor 2 mM NADPH/5 mM UDPGA and the increasing concentrations of tested UA (0, 0.01, 0.02 and 0.05 mM) was incubated in the reaction buffer containing (i) for P4503A4 0.1 M HEPES, 88 mM MgCl2 and (ii) for UGT 0.1 M HEPES, 88 mM MgCl2, 25 μg/mL alamethicin at 37 °C for 30 min and were terminated by adding 8.75 µL of 0.1 M HCl. The samples were placed in ice for 10 min and centrifuged (10 min, 13,400 rpm). Supernatant fractions were analyzed by HPLC. For more accurate investigation of P4503A4 inhibition by C-2045 and C-2053 the β-hydroxylation rate was measured at various concentrations of testosterone: 0.02, 0.05, 0.1 and 0.2 mM. The inhibitor (UA) concentrations were 0, 0.001, 0.005 and 0.01 mM, whereas the incubation time 30 min and concentration of P4503A4 (0.5 mg/mL).

The next series has as its system HT-29 cells. Nature of the series: Drug metabolism and medium/cell extract distribution in HT-29 colon tumor cells. The settings on record: HT-29, 5 μM; for drug level in cell extract: 3-48 h; for metabolite formation in cells: post-culture media and cell extracts. It is filed as cell-based, human. How it is done: (§1) To analyze the transformation products of UAs in colon tumor cell lines, HCT-116 or HT-29 cells were plated in 60 mm Petri dishes; after reaching 80% of confluence, cells were treated with 5/25/50 μM of C-2028, C-2045 or C-2053 (prepared as 10 or 2 mM stock solutions in water) for specified time. Half of medium was added to acetonitrile (1:1, v/v), centrifuged (12 min, 13,400 rpm, 4 °C) and the supernatant was analyzed by HPLC (post-culture medium). Cells remaining on the Petri dishes were collected by gentle scraping, sedimented, washed with ice-cold PBS, suspended in ice-cold chloroform and lysed by sonication for 15 min. After 1 h on ice, insoluble material was removed by centrifugation at 13,000 rpm for 20 min at 4 °C. The sediment was discarded and supernatant (chloroform) were evaporated under pressure. Then, sample was suspended in ice-cold 60% methanol and directly analyzed by HPLC (cell extract).

Another series concerns HCT-116 cells. Briefly: Drug metabolism in HCT-116 colon tumor cells. Particulars: HCT-116 (low UGT expression), 50 μM, medium and cell extract, up to 24 h. It is filed as cell-based, human. How it is done:
as §1

Series [1] is described as follows: Differential pulse voltammetry on glassy carbon electrode. It is filed as physicochemical. Particulars: 0.5–20 µM, 0.02 M borate buffer with 0.15 M NaCl, pH 7.4, glassy carbon electrode, vs Ag/AgCl/3 M KCl. On the procedure:
To minimize the effects of electrode absorption processes on the current signals, differential pulse voltammetry (DPV) was applied in the positive potential range. […] This behavior was not observed in the case of C-2045, where only one anodic signal at a potential of approximately 0.52 V was observed over the entire studied concentration range (0.5–20 µM). The linear dependency, I = f (cUAs), confirmed that the obtained anodic current signals can be used for analytical purposes; however, the signal of C-2028 was linear over a narrower concentration range than in the case of C-2045.
Cyclic voltammetry (CV) and differential pulse voltammetry (DVP) were performed in 0.02 M borate buffer with 0.15 M NaCl, in water pH 7.4. with Autolab, model PGSTAT 12 potentiostat equipped with an ECD amplifier module (RC time settings: 0.0 s for scan rates > 10 mV/s and 0.1 s for scan rates < 10 mV/s). The voltammetric measurements were done in the three-electrode system consisting of the working electrode (glassy carbon electrode, GCE; ϕ = 3 mm; BAS Instruments), the reference electrode (Ag/AgCl/3 M KCl) and a platinum wire as the auxiliary electrode. Before each experiment the surface of working electrode was polished with 1 μm Al2O3 powder on a wet pad. After each polishing, to remove alumina completely from the electrode surface, the surface was rinsed with direct stream of ultrapure water. […]

For the compound `CN(CCCNc1c2ccccc2nc2cccc([N+](=O)[O-])c12)CCCNc1ccc2ncn3c4ccccc4c(=O)c1c23` [C-2028], the “decrease in the activity of UGT2B7” value on UGT2B7 (0.01 mM and 0.02 mM compound) is 60%. On UGT2B7 (human, UGT2B7 isoenzyme preparation, pH 7.4, probe epirubicin (EPI), 0.05 mM compound), this compound showed an inhibition at 30 min, 0.05 mM of 90%. In addition, in the series with HT-29 cells, the “drug level in cell extract” value was “high up to 24 hours and diminished significantly after 48 hours”; the “metabolite formation in cells” value is on record as “did not indicate the presence of metabolites”.

In the case of `Cc1ccc([N+](=O)[O-])c2c(NCCCN(C)CCCNc3ccc4ncn5c6ccc(O)cc6c(=O)c3c45)c3ccccc3nc12` [C-2045], in the series on HCT-116 cells, the “metabolite formation in cells” value was “No metabolite products were observed”. Moreover, in series [1], the “DPV anodic signal potential” value is “approximately 0.52 V”.

In the case of `Cc1ccc([N+](=O)[O-])c2c(NCCCN(C)CCCNc3ccc4ncn5c6ccccc6c(=O)c3c45)c3ccccc3nc12` [C-2053], in the series on HT-29 cells, the “drug level in cell extract” value is recorded as “extremely high level” and the “metabolite formation in cells” value is “did not indicate the presence of metabolites”.

In general, inhibition refers to the percentage by which the read-out fell short of the control.
